Measurements reported in US20250338846A1, “COMPOSITIONS HAVING PESTICIDAL UTILITY AND PROCESSES RELATED THERETO” (CORTEVA AGRISCIENCE, LLC, priority 2022, published 2025).

Assays:
Format in all cases: in vivo
[1] = system: Sweet Potato Whitefly (Bemisia tabaci, BEMITA); assay: Bioassay 8: Sweet Potato Whitefly, spray on cotton seedlings at crawler emergence, nymphs counted 7-9 days after treatment; details: AI alone 0.1 (10^-5) Wt %
Method: where X=No. of live aphids on solvent check plants and Y=No. of live aphids on treated plants. In Table B1 the “Expected % Control” was calculated using the method described in Colby S. R., Weeds, 1967, 15, 20-22. Bioassay 8: Sweet Potato Whitefly (Bemisia tabaci, BEMITA) (“SPW”).
(§1) Stock solutions were prepared with Formula One as well as for each of the active ingredients individually. Test solutions were prepared from the stock solutions. Test solutions were prepared containing Formula One, the individual active ingredients, and mixtures of Formula One with each of the active ingredients. The test solutions for Formula One and the individual active ingredients were prepared by adding 500 μL of stock solution to a 25 mL glass vial, then adding 500 μL of acetone, followed by the addition of 9 mL water with 0.025% Tween®) 20 to create a 0.001% (w/v) solution. The test solutions containing mixtures of Formula One and the individual active ingredients were prepared by adding 500 μL of the active ingredient stock solution to a 25 mL glass vial, followed by 500 μL of the Formula One stock solution, then by the addition of 9 mL water with 0.025% Tween®) 20 to create a test solution containing 0.001% (w/v) Formula One and 0.001% (w/v) of the active ingredient. Each test solution was serially diluted to create desired doses of test solutions (0.001% (w/v), 0.0001% (w/v), 0.00001% (w/v), 0.000001% (w/v), 0.0000001% (w/v), 0.000008% (w/v) and 0.00000001% (w/v)).
(§2) The test solutions were tested against SPW using the following procedure: Cotton seedlings grown in 3-inch pots, pruned so that only one true leaf remained, were used as test substrate. Adult B. tabaci were allowed to colonize the cotton plants and lay eggs for 24 hours after which all adults were removed from the plants using compressed air. Plants were monitored for egg development and, when crawler emergence was underway (>25% emergence based on visual examination using a microscope), the plants were sprayed using the test solutions and methods described above for green peach aphids (GPA). Treated plants were held in a holding room at approximately 25° C. and ambient relative humidity (RH) prior to grading. Evaluation was conducted by counting the number of developed 2-3 instar nymphs per plant under a microscope 7-9 days after treatment. Percent control was measured using Abbott's correction formula (W. S. Abbott, J. Econ. Entomol. 18 (1925), pp. 265-267) as follows:
where X=No. of live nymphs on solvent check plants and Y=No. of live nymphs on treated plants. In Table B2 the “Expected % Control” was calculated using the method described in Colby S. R., Weeds, 1967, 15, 20-22. Bioassay 9: Diamondback Moth (Plutella xylostella, PLUTMA) (DBM).

[2] = system: Western Tarnished Plant Bug (Lygus hesperus, LYGUHE); assay: Bioassay 4: Western Tarnished Plant Bug, soaked green bean segments, living nymphs 3 days after application
Method: where X=No. of live nymphs on solvent check leaf discs and Y=No. of live nymphs on treated leaf discs. In Table B3 the “Expected % Control” was calculated using the method described in Colby S. R., Weeds, 1967, 15, 20-22. Bioassay 4: Western Tarnished Plant Bug (Lygus hesperus, LYGUHE) (“WTPB”).
(§3) Stock solutions were prepared with Formula One as well as for each of the active ingredients individually. Test solutions were prepared from the stock solutions. Test solutions were prepared containing Formula One, the individual active ingredients, and mixtures of Formula One with each of the active ingredients. The test solution for Formula One was prepared by adding 500 μL of the stock solution to a 25 mL glass vial, then adding 500 μL of acetone, followed by the addition of 9 mL water with 0.025% Tween®) 20 to create a 0.04% (w/v) solution. The test solutions of the individual active ingredients were prepared by adding 500 μL of stock solution to a 25 mL glass vial, then adding 500 μL of acetone, followed by the addition of 9 mL water with 0.025% Tween®) 20 to create a 0.005% (w/v) solution. The test solutions containing mixtures of Formula One and the individual active ingredients were prepared by adding 500 μL of the active ingredient stock solution to a 25 mL glass vial, followed by 500 μL of the Formula One stock solution, then by the addition of 9 mL water with 0.025% Tween®) 20 to create a test solution containing 0.04% (w/v) Formula One and 0.005% (w/v) of the active ingredient. Each test solution was serially diluted to create desired doses of test solutions (0.005% (w/v), 0.00125% (w/v), 0.0003125% (w/v), 0.000078% (w/v), and 0.0000195% (w/v)). In test solutions containing mixtures of Formula One and the active ingredients, the active ingredients were diluted as described above, but the Concentration of Formula One was held constant (0.04% (w/v)).
The test solutions were tested against WTPB using the following procedure: Fresh green beans were cut into segments approximately 1.5 inches long. Four bean segments were added to each 25 mL vial containing the test solutions and soaked for approximately 15 minutes. After soaking, a single bean fragment was removed and placed into a single well of a 32-well rearing tray (Frontier Agricultural Sciences™), on top of a round filter paper disc. A reference treatment (solvent check) was treated with the diluent only. Each treatment was replicated four times and the test treatments were held at approximately 26° C. and ambient relative humidity (RH) prior to grading. Bean segments were allowed to air dry for ˜30 minutes. Three WTPB nymphs were added to and contained in each well with a clear perforated adhesive lid. The total number of living WTPB nymphs was recorded 3 days after application. Scoring was based off the total number of living nymphs out of all four replicates. Percent control was measured using Abbott's correction formula (W. S. Abbott, J. Econ. Entomol. 18 (1925), pp. 265-267) as follows:
(§4) X=No. of live nymphs on solvent check and Y=No. of live nymphs on treated bean segments. In Table B4 the “Expected % Control” was calculated using the method described in Colby S. R., Weeds, 1967, 15, 20-22. Bioassay 5: Neotropical Brown Stink Bug (Euschistus heros, EUSCHE) (“BSB”).

[3] = system: Neotropical Brown Stink Bug (Euschistus heros, EUSCHE); assay: whole plant or invertebrate
Method: as §4
as §3, with “The” for “The test solutions of the”, “(0.01%” for “(0.005%”, “0.0025%” for “0.00125%”, “0.000625%” for “0.0003125%”, “0.000156%” for “0.000078%”, “0.000039%” for “0.0000195%”
The test solutions that were tested against BSB were similar to those described above for WTPB. Fresh green beans were cut into segments approximately 1.5 inches long. Four bean segments were added to each test solution and soaked for approximately 15 minutes. After soaking, a single bean fragment was removed and placed into a single well of a 32-well rearing tray (Frontier Agricultural Sciences™), on top of a round filter paper disc. A reference treatment (solvent check) was treated with the diluent only. Each treatment was replicated four times and the test treatments were held at approximately 26° C. and ambient relative humidity (RH) prior to grading. Bean segments were allowed to air dry for ˜30 minutes. Three BSB nymphs were added to and contained in each well with a clear perforated adhesive lid. The total number of living BSB nymphs was recorded 3 days after application. Scoring was based off the total number of living nymphs out of all four replicates. Percent control was measured using Abbott's correction formula (W. S. Abbott, J. Econ. Entomol. 18 (1925), pp. 265-267) as follows:
where X=No. of live nymphs on solvent check and Y=No. of live nymphs on treated bean segments. In Table B5 the “Expected % Control” was calculated using the method described in Colby S. R., Weeds, 1967, 15, 20-22. Bioassay 6: Beet Armyworm (Spodoptera exigua, LAPHEG) (BAW), and Diamondback Moth (Plutella xylostella, PLUTMA) (DBM).

[4] = system: Sweet Potato Whitefly (Bemisia tabaci, BEMITA); assay: Bioassay 2: Sweet Potato Whitefly, spray on cotton seedlings at crawler emergence, nymphs counted 7-9 days after treatment; details: AI alone 1 (10-5) % w/v
Method: as §1, with “(w/v),” for “(w/v), 0.000008% (w/v)”
as §2
where X=No. of live nymphs on solvent check plants and Y=No. of live nymphs on treated plants. In Table B2 the “Expected % Control” was calculated using the method described in Colby S. R., Weeds, 1967, 15, 20-22. Bioassay 3: Western Flower Thrips (Frankliniella occidentalis, FRANOC) (“WFT”).

Compound: CC1(C)C(C=C(Cl)Cl)C1C(=O)OC(C#N)c1ccc(F)c(Oc2ccccc2)c1 (stereo not drawn) [Cyfluthrin]
- Average % Control A1 [1]: 46.90%

Compound: CC(c1ccc(C(F)(F)F)nc1)S(C)(=O)=NC#N (stereo not drawn) [Sulfoxaflor]
- Average % Control AI ([2]; AI alone 0.0003125 % w/v): 0%
- pest or weed control at 0.0025 % strength ([3]; Euschistus heros, 72 h, AI alone 0.0025 % w/v, read-out: Average % Control AI): 58%

Compound: Spinetoram
- Average % Control AI [4]: 41%
- Average % Control AI ([2]; AI alone 0.005 % w/v): 0%
- Average % Control AI ([3]; AI alone 0.000625 % w/v): 8%
